In patent US20240057587A1, “ORGANIC AMMONIUM SALT AND HYDROGEN-BONDING MATERIAL TREATMENT AGENT USING SAME” (MIYOSHI OIL & FAT CO.,LTD., priority 2019, published 2024):
Read-outs that look alike come from different tables or passages of the source.

Legend:
urease [1] = biological target: T1, urease (Canavalia ensiformis, UniProt P07374); format: biochemical, sword bean
urease [2] = biological target: T1, urease; format: biochemical, sword bean; remark: listed apart in the source
cytochrome C [3] = biological target: T2, cytochrome C (Equus caballus, UniProt P00004); assay: Protein long-term stability (IR and UV spectrum), solid sample; design: species or system Horse
T2 construct: a reagent produced by NACALAI TESQUE, INC; (Horse Heart, molecular weight 12384) was used; purchased NACALAI TESQUE, INC; host or cells: horse heart (tissue origin)

cytochrome C [4] = biological target: T2, cytochrome C; assay: Protein long-term stability, 50% aqueous solution; design: species or system Horse
Protocol: At first, changes in amide absorption by IR spectrum were precisely observed, and there were confirmed the higher-order structures of protein (turn, α-helix, random coil, β-sheet). The amide I region (1,600 to 1,700 cm^−1) and the amide II region (1,500 to 1,600 cm^−1) were measured by ATR method using a Fourier transform infrared spectrophotometer (FT/IR-6100 by JASCO Corporation), and peaks were then detected based on a difference(s) between a cytochrome C-free organic ammonium salt sample (blank) and a cytochrome C-containing organic ammonium salt sample (sample).
Further, the activity state of cytochrome C (Fe^2+: reduced form, Fe^3+: oxidized form) was confirmed via absorptions in UV spectrum. The measurement was conducted using an ultraviolet-visible spectrophotometer and a quartz cell having an optical path width of 2 mm, immediately after diluting the cytochrome C-containing organic ammonium salt sample to 1% with a 50 mM phosphate buffer of pH 7.4 (prepared using 50 mM potassium dihydrogen phosphate and 50 mM dipotassium hydrogen phosphate).

urease [5] = biological target: T1, urease; format: biochemical, sword bean; remark: listed apart in the source
[6] = solid sample, 40° C., 80% RH, after 30 days, Stabilizer:Enzyme = 0.1:1
[7] = solid sample, 40° C., 80% RH, after 30 days, Stabilizer:Enzyme = 1:1
[8] = solid sample, 40° C., 80% RH, after 30 days, Stabilizer:Enzyme = 10:1
[9] = urease in 50 wt % aqueous solution of compound, 40° C., 80% RH, after 30 days, Stabilizer:Enzyme = 1:1
[10] = urease, solid sample mixed by mortar, 40° C., 80% RH, after 30 days, 1:1
[11] = urease, solid sample, solvent distilled away from dissolution solution, 40° C., 80% RH, after 30 days, 1:1
[12] = cytochrome C, solid sample, 40° C., 80% RH, after 30 days, Stabilizer:Protein = 0.1:1
[13] = cytochrome C, solid sample, 40° C., 80% RH, after 30 days, Stabilizer:Protein = 1:1
[14] = cytochrome C, solid sample, 40° C., 80% RH, after 30 days, Stabilizer:Protein = 10:1
[15] = cytochrome C in 50 wt % aqueous solution of compound, 40° C., after 30 days, 1:1

T2 sequence (P00004 whole entry): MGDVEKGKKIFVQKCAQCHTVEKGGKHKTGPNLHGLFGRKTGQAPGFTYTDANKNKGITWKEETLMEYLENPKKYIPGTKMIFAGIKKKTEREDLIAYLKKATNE
T1 sequence (P07374 whole entry, looked up): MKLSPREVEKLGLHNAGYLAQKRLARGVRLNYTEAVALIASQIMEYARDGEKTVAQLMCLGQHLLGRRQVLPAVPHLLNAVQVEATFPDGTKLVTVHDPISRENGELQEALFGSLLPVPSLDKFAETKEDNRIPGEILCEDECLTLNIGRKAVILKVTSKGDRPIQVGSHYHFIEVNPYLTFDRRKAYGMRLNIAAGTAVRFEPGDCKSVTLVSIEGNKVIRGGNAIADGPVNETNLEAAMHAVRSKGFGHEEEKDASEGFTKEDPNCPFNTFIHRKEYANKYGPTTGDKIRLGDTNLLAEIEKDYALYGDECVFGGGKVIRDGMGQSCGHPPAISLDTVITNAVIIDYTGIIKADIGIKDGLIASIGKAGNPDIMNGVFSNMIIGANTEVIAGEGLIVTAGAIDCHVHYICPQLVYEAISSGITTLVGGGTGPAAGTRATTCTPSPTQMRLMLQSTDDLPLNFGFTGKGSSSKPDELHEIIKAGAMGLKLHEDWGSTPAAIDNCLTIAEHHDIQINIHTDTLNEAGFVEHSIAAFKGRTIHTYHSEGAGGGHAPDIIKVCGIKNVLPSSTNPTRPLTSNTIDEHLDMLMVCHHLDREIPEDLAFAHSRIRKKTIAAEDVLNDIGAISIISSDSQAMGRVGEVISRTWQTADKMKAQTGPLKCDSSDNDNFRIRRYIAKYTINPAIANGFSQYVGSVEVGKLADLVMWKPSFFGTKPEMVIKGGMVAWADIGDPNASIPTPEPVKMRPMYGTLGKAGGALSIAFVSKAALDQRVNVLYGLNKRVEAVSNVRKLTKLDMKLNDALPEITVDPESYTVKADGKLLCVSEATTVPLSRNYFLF

Structure (SMILES)	Enzyme activity retention rate(%) (after 30 days) Stabilizer: Enzyme = 0.1:1 (urease [1])	Enzyme activity retention rate(%) (after 30 days) Stabilizer: Enzyme = 1:1 (urease [1])	Enzyme activity retention rate(%) (after 30 days) Stabilizer: Enzyme = 10:1 (urease [1])	Enzyme activity retention rate(%) (after 30 days) Stabilizer: Enzyme = 1:1 (urease [2])	Protein long-term stability (after 30 days) Stabilizer: Protein = 0.1:1 (cytochrome C [3])	Protein long-term stability (after 30 days) Stabilizer: Protein = 1:1 (cytochrome C [3])	Protein long-term stability (after 30 days) Stabilizer: Protein = 10:1 (cytochrome C [3])	Protein long-term stability (after 30 days) Stabilize:Protein = 1:1 (cytochrome C [4])	Enzyme activity retention rate (%) (after 30 days) Stabilizer:Enzyme = 1:1, Mixed by mortar (urease [5])	Enzyme activity retention rate (%) (after 30 days) Stabilizer:Enzyme = 1:1, Solvent distilled away from dissolution solution (urease [5])	Enzyme activity retention rate(%) (after 30 days) Stabilizer: Enzyme = 0.1:1 (urease [1]; [6])	Enzyme activity retention rate(%) (after 30 days) Stabilizer: Enzyme = 1:1 (urease [1]; [7])	Enzyme activity retention rate(%) (after 30 days) Stabilizer: Enzyme = 10:1 (urease [1]; [8])	Enzyme activity retention rate(%) (after 30 days) Stabilizer: Enzyme = 1:1 (urease [2]; [9])	Enzyme activity retention rate (%) (after 30 days) Stabilizer:Enzyme = 1:1, Mixed by mortar (urease [5]; [10])	Enzyme activity retention rate (%) (after 30 days) Stabilizer:Enzyme = 1:1, Solvent distilled away from dissolution solution (urease [5]; [11])	Protein long-term stability (after 30 days) Stabilizer: Protein = 0.1:1 (cytochrome C [3]; [12])	Protein long-term stability (after 30 days) Stabilizer: Protein = 1:1 (cytochrome C [3]; [13])	Protein long-term stability (after 30 days) Stabilizer: Protein = 10:1 (cytochrome C [3]; [14])	Protein long-term stability (after 30 days) Stabilize:Protein = 1:1 (cytochrome C [4]; [15])
Br.NC(CO)(CO)CO [Working example 78]	3	4	18	3	◯	◯	◯	○ ○ ○	0	24										
CC(=O)[O-].C[N+](C)(C)CCO [Comparative example 2, Choline Acetate, reference compound]					×	×	×				2	3	0	2	0	3				
O=C[C@H](O)[C@@H](O)[C@H](O)[C@H](O)CO [Comparative example 4, Glucose, reference compound]	0	0	0	0					0	0							×	×	×	
NC(CO)(CO)CO.O=C(O)c1ccccc1 [Working example 60]					◯	◯	◯	○ ○ ○			7	20	29	21	0	20				
CCCCn1cc[n+](C)c1.[Br-] [Comparative example 3, BMI-Br, reference compound]	0	0	0	0					0	0							×	×	×	
CC(O)C(=O)O.CCCCN(CCCC)CCCC [Comparative example 1, Tributyl Ammonium Lactate, reference compound]	0	0	0	0	×	×	×		0	0										
OCCNCCO [Working example 24]											9	25	25	10	5	25	◯	◯	◯	○
NC(CO)(CO)CO [Working example 83]											16	24	38	20	0	24	◯	◯	◯	○ ○ ○
NC(CO)(CO)CO [Working example 3]											20	50	53	32	11	50	◯	◯	◯	○ ○ ○
NCC(O)C(O)C(O)C(O)CO (stereo not drawn) [Working example 29]											5	18	21	11	0	18	◯	◯	◯	○
